Active and inactive are the calls of the source. The rule behind the calls is not given here.

Consider 7 compounds from ChEMBL document CHEMBL4610069, “Chetocochliodins A-I, Epipoly(thiodioxopiperazines) from Chaetomium cochliodes” (J Nat Prod, 2020).

What all share (type): functional, cell-based
Test [1] relates to A549. The test can be described thus: Cytotoxicity against human A549 cells by MTT assay. (Formazan colour is commonly taken as a measure of viable cells.)
Test [2] has as its system Huh-7. The test can be described thus: Cytotoxicity against human HuH7 cells by MTT assay.
The subject of test [3] is HeLa. The test can be described thus: Cytotoxicity against human HeLa cells by MTT assay.
The test system of test [4] is Huh-7. The test can be described thus: Cytotoxicity against human HuH7 cells up to 100 uM by MTT assay.
In test [5] the test system is A549. The test can be described thus: Cytotoxicity against human A549 cells up to 100 uM by MTT assay.
Test [6] relates to HeLa. The test can be described thus: Cytotoxicity against human HeLa cells up to 100 uM by MTT assay.

For `CN1C(=O)[C@]2(Cc3c[nH]c4ccccc34)SSSS[C@@]1(CO)C(=O)N2C`, the IC50 in the test with A549 [1], in the test with Huh-7 [2] and with HeLa [3] was 930 to 2450 nM in each case.
Consider `CO[C@]1(CO)NC(=O)[C@](Cc2c[nH]c3ccccc23)(OC)NC1=O`, for which the outcome in the test with Huh-7 [4], in the test with A549 [5] and in the test with HeLa [6] was inactive.
Consider `CO[C@@]1(CO)NC(=O)[C@](Cc2c[nH]c3ccccc23)(SC)NC1=O`, for which the result in the test with A549 [1], in the test on Huh-7 [2] and in the test on HeLa [3] was inactive.
For the compound `CO[C@]1(Cc2c[nH]c3ccccc23)NC(=O)[C@H](CO)N(C)C1=O`, the outcome with Huh-7 [4], in the test on A549 [5] and with HeLa [6] was inactive.
For the compound `CO[C@]1(CO)NC(=O)[C@@](Cc2c[nH]c3ccccc23)(OC)NC1=O`, the result in the test with Huh-7 [4], in the test with A549 [5] and with HeLa [6] was inactive.
`CO[C@]1(CO)NC(=O)[C@](Cc2c[nH]c3ccccc23)(SC)NC1=O`: the result in the test on A549 [1], with Huh-7 [2] and in the test on HeLa [3] was inactive.
On to `CS[C@]1(CO)NC(=O)[C@](Cc2c[nH]c3ccccc23)(SC)NC1=O`, for which the result in the test on A549 [1], with Huh-7 [2] and in the test with HeLa [3] was inactive.

The term IC50 denotes the midpoint of a concentration-inhibition curve. A lower IC50 goes with higher potency.
